Where two headings read alike, the source gives them in different places.
Legend:
[1] = tested on: MEXF514 (melanoma); experiment: Colony-forming assay; format: cell-based, human
[2] = tested on: MCF7X (mammary); experiment: Colony-forming assay; format: cell-based, human; conditions: for IC50: read-out: IC50 colony formation
[3] = tested on: human tumor xenograft LXFL 529; experiment: In vivo testing in nude mice bearing subcutaneous tumor xenograft
Experimental: Compound of Examples 1, 4, 6, 8, 9 and 10 were subjected to in vivo testing in nude mice bearing subcutaneously growing human tumor xenograft LXFL 529. The indigoid bisindole derivatives were applied intraperitoneally to the animals in doses and according to the schedule as described in Table 4.
The experiments were run for 21 or 28 days. Anti-tumor activity was evaluated comparing the median tumor volume relative to control, expressed as %T/C, wherein T is the test group and C the vehicle control group. In Table 4, anti-tumor activity is given according to an activity rate scale.

[4] = tested on: large-cell lung carcinoma xenograft line LXFL 529 L; experiment: Tumor cell growth inhibition, sulforhodamine B (SRB) assay; format: cell-based, human; conditions: LXFL529L; three days incubation, serum containing medium
[5] = tested on: MEXF989 (melanoma); experiment: Colony-forming assay; format: cell-based, human
[6] = tested on: LXFA289 (lung adenocarcinoma); experiment: Colony-forming assay; format: cell-based, human; conditions: for IC50: read-out: IC50 colony formation
[7] = tested on: mammary carcinoma line MCF-7; experiment: Tumor cell growth inhibition, sulforhodamine B (SRB) assay; format: cell-based, human; conditions: MCF7; three days incubation, serum containing medium
[8] = tested on: CXF280 (colon); experiment: Colony-forming assay; format: cell-based, human; conditions: for IC50: read-out: IC50 colony formation
[9] = tested on: MX1 (mammary); experiment: Colony-forming assay; format: cell-based, human; conditions: for IC50: read-out: IC50 colony formation
[10] = tested on: MEXF515LX (melanoma); experiment: Colony-forming assay; format: cell-based, human; conditions: for IC50: read-out: IC50 colony formation
[11] = tested on: LXFL 529L cells; experiment: Cellular uptake into LXFL 529L cells; conditions: for distribution cellular organelles / distribution cytosol: 2 hours incubation
Experimental: The compounds of Examples 1, 6 and 8 and Comparative Examples 1 and 2 were investigated with respect to their ability to penetrate LXFL 529L cells having the passage numbers P23 to P39. The amounts of the substances taken up by the cells are given depending on the concentration of the substance within the incubation medium. The time of incubation was 2 hours in all of the experiments. Furthermore, the distribution of the substance which was taken up by the cells in the cytosol and the cellular organelles (particular) was estimated and is given in the intermediate column of Table 2. Tumor cell growth inhibition was determined by the sulfo-rhodamine B assay (SRB assay) according to Skehan et al., J. Natl. Cancer Institute 82, pages 1107-1112 (1990). Incubation was conducted for three days in serum containing medium. Tumor cell lines tested were a large-cell lung carcinoma xenograft line LXFL 529 L and the mammary carcinoma line MCF-7.

[12] = tested on: BXF1301 (bladder); experiment: Colony-forming assay; format: cell-based, human; conditions: for IC50: read-out: IC50 colony formation
[13] = tested on: OVXF1355 (ovarian); experiment: Colony-forming assay; format: cell-based, human
[14] = tested on: LXFL529 (lung large-cell); experiment: Colony-forming assay; format: cell-based, human
[15] = tested on: PAXF546 (pancreatic); experiment: Colony-forming assay; format: cell-based, human
[16] = tested on: LXFS650 (lung small-cell); experiment: Colony-forming assay; format: cell-based, human
[17] = tested on: HT29X (colon); experiment: Colony-forming assay; format: cell-based, human; conditions: colon HT29X; for IC50: Homo sapiens, read-out: IC50 colony formation
[18] = tested on: PAXF736 (pancreatic); experiment: Colony-forming assay; format: cell-based, human
[19] = tested on: OVXF1353 (ovarian); experiment: Colony-forming assay; format: cell-based, human
Experimental: (§1) The anti-tumor activity of the compounds was evaluated via a colony-forming-assay as described e.g. by D. P. Berger et al. in Annals of Oncology 1, pages 333-341 (1 990), “The clonongenic assay with human tumor xenografts, evaluation, predictive values and application for drug screening”.
(§2) The experiments were conducted using various tumor cell lines, in particular mammary carcinoma (MAXF), lung adenocarcinoma (LXFA), large-cell lung carcinoma (LXFL), small-cell lung carcinoma (LXFS), colon carcinoma (CXF), melanoma (MEXF), pancreatic carcinoma (PAXF), renal carcinoma (RXF), ovarian carcinoma (OVXF) and bladder carcinoma (BXF).

[20] = tested on: OVXF899 (ovarian)
Experimental: as §1, §2

[21] = read-out: IC50 colony formation
[22] = 100 mg/kg/day i.p., days 1, 4, 8, 11, 15, 18, 22
[23] = 300 mg/kg/day i.p., days 1, 4, 8, 11, 15, 18, 22
[24] = concentration of incubation 10 μM
[25] = concentration of incubation 20 μM
[26] = Homo sapiens, read-out: IC50 colony formation

Row | SMILES | IC70 colony formation [2] [µM] | IC50 [2] [nM] | activity rating [3, 22] | activity rating [3, 23] | IC70 colony formation [5] [µM] | IC70 colony formation [6] [µM] | IC50 [6] [nM] | IC70 colony formation [8] [µM] | IC50 [8] [µM] | IC70 colony formation [9] [µM] | IC70 colony formation [10] [µM] | IC50 [10] [nM] | IC70 colony formation [12] [µM] | IC50 [12] [µM] | IC70 colony formation [14] [µM] | IC50 [17] [µM] | IC70 colony formation [17] [µM] | further results
1 | O=C1Nc2ccc([N+](=O)[O-])cc2C1=C1Nc2ccccc2C1=O [Example 7, 5-Nitroindirubin] | 15.1 | < 1000 | – | – | – | – | – | – | – | – | – | – | – | – | – | – | – | IC70 colony formation [1]: >10.0 µM; IC50 [1, 21]: 4.9 µM
2 | O=C1Nc2ccccc2/C1=C1/Nc2ccccc2/C1=N\O [Example 8, Indirubin-3′-oxime] | – | – | − (inactive T/C > 50%) | − (inactive T/C > 50%) | 2.6 | 3.4 | 900 | 12.6 | 8 | 9.2 | 5.7 | 2800 | 16.1 | 10.6 | – | – | – | IC50 [4]: 3000 ± 500 nM; IC50 [5, 21]: 1000 nM; IC50 [7]: 3.3 ± 0.4 µM; IC50 [9]: 7.7 µM; ability to penetrate the cellular membrane / uptake compared to indirubin (Example 1) (in words) ([11]; LXFL 529L cells): slightly improved; uptake by the tumor cells (in words) ([11]; LXFL 529L cells): taken up by the tumor cells; distribution cellular organelles [11, 24]: 57 ± 14.1%; distribution cytosol [11, 24]: 43 ± 14.1%; distribution cellular organelles [11, 25]: 56 ± 15.6%; distribution cytosol [11, 25]: 44 ± 15.6%
3 | O=C1Nc2ccc(I)cc2/C1=C1/Nc2ccccc2/C1=N\O [Example 9, 5-Iodoindirubine-3′-oxime] | 10.4 | 2400 | − (inactive T/C > 50%) | + (tumor inhibition T/C > 25-50%) | – | 0.7 | 50 | 16.3 | 10.7 | – | 4.9 | 2600 | 5.8 | 4 | – | – | – | –
4 | O=C1Nc2ccccc2/C1=C1\C(=O)Nc2ccccc21 [Example 10, Isoindigo] | <1.0 | – | – | – | <1.0 | – | – | <1.0 | – | <1.0 | – | – | 8.2 | – | 4.5 | < 1 | <1.0 | IC70 colony formation [13]: <1.0 µM; IC50 [13, 26]: < 1000 nM; activity rating ([3]; 30 mg/kg/day i.p., days 1-5): − (inactive T/C > 50%); activity rating ([3]; 100 mg/kg/day i.p., days 1-5): − (inactive T/C > 50%); activity rating ([3]; 300 mg/kg/day i.p., days 1-5): + (tumor inhibition T/C > 25-50%); IC50 ([5]; Homo sapiens, MEXF 989, read-out: IC50 colony formation): < 1000 nM; IC50 ([2]; Homo sapiens): < 1000 nM; IC50 ([14]; Homo sapiens, LXFL 529, read-out: IC50 colony formation): 2600 nM; IC50 ([8]; Homo sapiens): < 1 µM; IC70 colony formation [15]: <1.0 µM; IC50 [15, 26]: < 1000 nM; IC70 colony formation [16]: <1.0 µM; IC50 [16, 26]: < 1000 nM; IC50 ([9]; Homo sapiens): < 1 µM; IC70 colony formation [18]: <1.0 µM; IC50 [18, 26]: < 1000 nM; IC50 ([12]; Homo sapiens): 6 µM
5 | O=C1/C(=C2\Nc3ccccc3C2=O)Nc2ccccc21 [Example 11, Indigo] | – | – | – | – | – | 12.3 | – | – | – | – | – | – | – | – | – | 3.3 | 26.1 | IC50 ([6]; Homo sapiens): 3500 nM; IC70 colony formation [19]: 16.7 µM; IC50 [19, 26]: 3.9 µM
6 | O=C1Nc2ccc(S(=O)(=O)NCCO)cc2C1=C1Nc2ccccc2C1=O [Example 13, Indirubin-5-sulfone(2-hydroxyethyl)amide] | 2.1 | 600 | – | – | – | 2.6 | 1100 | 17.3 | 12 | – | 0.4 | < 100 | – | – | 5.9 | – | – | IC50 [14, 21]: 3400 nM; IC70 colony formation [20]: 0.4 µM; IC50 [20, 21]: 300 nM

Reference: patent US6664285B1, “Use of cell membrane penetrating indigoid bisindole derivatives” (priority 1999, dated 2003)
